The values that follow come from patent US20260285857A1, “BICYCLIC AND HETEROCYCLIC AMIDE COMPOUNDS” (priority 2024, published 2026).

The assay concerns immunoglobulin light chain protein WIL-FL T46L. Description: Differential scanning fluorimetry (thermal shift) assay. The following applies: Table A; temperature shift [Tm]compound-[Tm]vehicle; recombinant WIL-FL T46L. It counts as binding. (Differential scanning fluorimetry follows unfolding on heating by fluorescence.)

As to `Cc1cc(N2CC[C@](C)(c3ccccc3)C2)cn2nc(C(=O)N[C@@H]3CNC[C@@H]3O)nc12` [Compound 191], the DSF entry is reported as “***** (>2.5° C.=*****)”. For the compound `Cc1cc(N2CC[C@](C)(c3ccccc3)C2)cn2nc(C(=O)NC3CCN(CC(=O)O)C3)nc12` (stereo partly drawn) [Compound 192], the DSF entry was “***** (>2.5° C.=*****)”. In the case of `Cc1cc(N2CC[C@](C)(c3ccccc3)C2)cn2nc(C(=O)N[C@H]3CCN(CC(F)F)C3)nc12` [Compound 193] it was “***** (>2.5° C.=*****)”. In the case of `Cc1cc(N2CC[C@](C)(c3ccccc3)C2)cn2nc(C(=O)N3C[C@@H]4CN(c5cccc(C(=O)O)n5)C[C@@H]4C3)nc12` [Compound 194] it was “***** (>2.5° C.=*****)”; in that of `Cc1cc(N2CC[C@](C)(c3ccccc3)C2)cn2nc(C(=O)N3CCC34CCCN(c3cccc(C(=O)O)n3)C4)nc12` (stereo partly drawn) [Compound 195], “***** (>2.5° C.=*****)”. `Cc1cc(N2CC[C@](C)(c3ccccc3)C2)cn2nc(C(=O)N3CCOCC3)nc12` [Compound 196]: the DSF entry was “***** (>2.5° C.=*****)”. As for `Cc1cc(N2CC[C@](C)(c3ccccc3)C2)cn2nc(C(=O)N3CCCC(C(=O)O)C3)nc12` (stereo partly drawn) [Compound 197], the DSF entry is recorded as “***** (>2.5° C.=*****)”.

With `Cc1cc(N2CC[C@](C)(c3ccccc3)C2)cn2nc(C(=O)NC3CCOCC3)nc12` [Compound 198], the DSF result was “***** (>2.5° C.=*****)”.

With `Cc1cc(N2CC[C@](C)(c3ccccc3)C2)cn2nc(C(=O)NC3CC4CCC(C3)N4)nc12` (stereo partly drawn) [Compound 199], the DSF entry was “***** (>2.5° C.=*****)”. `Cc1cc(N2CC[C@](C)(c3ccccc3)C2)cn2nc(C(=O)NC3C4CCC3NC4)nc12` (stereo partly drawn) [Compound 201]: the DSF result was “***** (>2.5° C.=*****)”. In the case of `Cc1cc(N2CC[C@@](C)(c3ccccc3)C2)cn2nc(C(=O)NCC(O)C(F)(F)F)nc12` (stereo partly drawn) [Compound 202] it was “***** (>2.5° C.=*****)”; in that of `Cc1cc(N2CC[C@](C)(c3ccccc3)C2)cn2nc(C(=O)NC3CNC(C(F)(F)F)C3)nc12` (stereo partly drawn) [Compound 203], “***** (>2.5° C.=*****)”; in that of `Cc1cc(N2CC[C@](C)(c3ccccc3)C2)cn2nc(C(=O)NC34CCC(CO)(C3)C4)nc12` [Compound 204], “***** (>2.5° C.=*****)”. In the case of `Cc1cc(N2CC[C@](C)(c3ccccc3)C2)cn2nc(C(=O)NC3CC(O)(C(F)(F)F)C3)nc12` (stereo partly drawn) [Compound 205] it was “***** (>2.5° C.=*****)”; in that of `Cc1cc(N2CC[C@](C)(c3ccccc3)C2)cn2nc(C(=O)N[C@H](CO)C(C)C)nc12` [Compound 206], “***** (>2.5° C.=*****)”. In the case of `Cc1cc(N2CC[C@](C)(c3ccccc3)C2)cn2nc(C(=O)NC34CCC(C(=O)O)(C3)C4)nc12` [Compound 207] it was “***** (>2.5° C.=*****)”; in that of `Cc1cc(N2CC[C@](C)(c3ccccc3)C2)cn2nc(C(=O)NC34CCC(C(C)(C)O)(C3)C4)nc12` [Compound 208], “***** (>2.5° C.=*****)”. Take `Cc1cc(N2CC[C@](C)(c3ccccc3)C2)cn2nc(C(=O)NCC34COC(C(=O)O)(C3)C4)nc12` [Compound 209]: the DSF entry was “***** (>2.5° C.=*****)”. In the case of `Cc1cc(N2CC[C@](C)(c3ccccc3)C2)cn2nc(C(=O)N3C[C@H]4C[C@@H]3C4C(=O)O)nc12` (stereo partly drawn) [Compound 210] it was “***** (>2.5° C.=*****)”. In the case of `Cc1cc(N2CC[C@](C)(c3ccccc3)C2)cn2nc(C(=O)N3C[C@@H]4C[C@H]3C4C(=O)O)nc12` (stereo partly drawn) [Compound 211] it was “***** (>2.5° C.=*****)”. In the case of `Cc1cc(N2CC[C@](C)(c3ccccc3)C2)cn2nc(C(=O)NC34COC(C(N)=O)(C3)C4)nc12` [Compound 212] it was “***** (>2.5° C.=*****)”; in that of `Cc1cc(N2CC[C@](C)(c3ccccc3)C2)cn2nc(C(=O)N3CC4CN(c5cccc(C(=O)O)n5)CC4C3)nc12` (stereo partly drawn) [Compound 213], “***** (>2.5° C.=*****)”; in that of `Cc1cc(N2CC[C@](C)(c3ccccc3)C2)cn2nc(C(=O)N3CC4(CCN4C(=O)c4cccc(C(=O)O)n4)C3)nc12` [Compound 215], “***** (>2.5° C.=*****)”. As to `Cc1cc(N2CC[C@](C)(c3ccccc3)C2)cn2nc(C(=O)N3CC4(CCC4Oc4cccc(C(=O)O)n4)C3)nc12` (stereo partly drawn) [Compound 216], the DSF entry is “***** (>2.5° C.=*****)”. Take `Cc1cc(N2CC[C@](C)(c3ccccc3)C2)cn2nc(C(=O)NC3CN(c4cccc(C(=O)O)n4)C3)nc12` [Compound 217]: the DSF entry is given as “***** (>2.5° C.=*****)”. Take `Cc1cc(N2CC[C@](C)(c3ccccc3)C2)cn2nc(C(=O)N3CCC4(CCN(c5nc(C(=O)O)cs5)C4)C3)nc12` (stereo partly drawn) [Compound 218]: the DSF result is reported as “***** (>2.5° C.=*****)”.

In the case of `Cc1cc(N2CC[C@](C)(c3ccccc3)C2)cn2nc(C(=O)NC3CCCN(c4cccc(C(=O)O)n4)C3)nc12` (stereo partly drawn) [Compound 219], the DSF result is on record as “***** (>2.5° C.=*****)”. In the case of `Cc1cc(N2CC[C@](C)(c3ccccc3)C2)cn2nc(C(=O)NC3COC4(CCN(c5cccc(C(=O)O)n5)C4)C3)nc12` (stereo partly drawn) [Compound 220] it was “***** (>2.5° C.=*****)”; in that of `Cc1cc(N2CC[C@](C)(c3ccccc3)C2)cn2nc(C(=O)N3CC4(CC(Oc5cccc(C(=O)O)n5)C4)C3)nc12` [Compound 221], “***** (>2.5° C.=*****)”; in that of `Cc1cc(N2CC[C@](C)(c3ccccc3)C2)cn2nc(C(=O)N3CCC4(C3)CN(c3cccc(C(=O)O)n3)CCO4)nc12` (stereo partly drawn) [Compound 222], “***** (>2.5° C.=*****)”. With `Cc1cc(N2CC[C@](C)(c3ccccc3)C2)cn2nc(C(=O)NC3CC4(C3)CN(c3ccnc(O)c3)C4)nc12` [Compound 223], the DSF result is “***** (>2.5° C.=*****)”.

For `Cc1cc(N2CC[C@](C)(c3ccccc3)C2)cn2nc(C(=O)NC3CCC(c4ccc(C(=O)O)c(F)c4)CC3)nc12` (stereo partly drawn) [Compound 224], the DSF entry is given as “***** (>2.5° C.=*****)”. In the case of `Cc1cc(N2CC[C@](C)(c3ccccc3)C2)cn2nc(C(=O)N[C@H]3CC[C@H](c4ccc(C(=O)O)c(F)c4)CC3)nc12` [Compound 225], the DSF result is “***** (>2.5° C.=*****)”. In the case of `Cc1cc(N2CC[C@](C)(c3ccccc3)C2)cn2nc(C(=O)NC3CCC(c4ccnc(C(=O)O)c4)CC3)nc12` (stereo partly drawn) [Compound 226] it was “***** (>2.5° C.=*****)”; in that of `Cc1cc(N2CC[C@](C)(c3ccccc3)C2)cn2nc(C(=O)NC3CCN(c4cc(C(=O)O)ccn4)CC3)nc12` [Compound 227], “***** (>2.5° C.=*****)”; in that of `Cc1cc(N2CC[C@](C)(c3ccccc3)C2)cn2nc(C(=O)NC3CCC34CN(c3cccc(C(=O)O)n3)C4)nc12` (stereo partly drawn) [Compound 228], “***** (>2.5° C.=*****)”. On to `Cc1cc(N2CC[C@](C)(c3ccccc3)C2)cn2nc(C(=O)NC3CCC(c4cccc(C(=O)O)n4)CC3)nc12` (stereo partly drawn) [Compound 229], for which the DSF entry was “***** (>2.5° C.=*****)”. For `Cc1cc(N2CC[C@](C)(c3ccccc3)C2)cn2nc(C(=O)NC3CN(c4cccc(C(=O)O)n4)CCC3(C)O)nc12` (stereo partly drawn) [Compound 230], the DSF result was “***** (>2.5° C.=*****)”. Consider `Cc1cc(N2CC[C@](C)(c3ccccc3)C2)cn2nc(C(=O)N3CC4=C(C3)CN(c3cccc(C(=O)O)n3)C4)nc12` [Compound 231], for which the DSF result is given as “***** (>2.5° C.=*****)”. In the case of `Cc1cc(N2CC[C@](C)(c3ccccc3)C2)cn2nc(C(=O)NC34CC3CN(c3cccc(C(=O)O)n3)C4)nc12` (stereo partly drawn) [Compound 232] it was “***** (>2.5° C.=*****)”; in that of `COC(=O)c1n[nH]c(N2CCC3(CCN(C(=O)c4nc5c(C)cc(N6CC[C@](C)(c7ccccc7)C6)cn5n4)C3)C2)n1` (stereo partly drawn) [Compound 233], “***** (>2.5° C.=*****)”; in that of `Cc1cc(N2CC[C@](C)(c3ccccc3)C2)cn2nc(C(=O)N3CCC4(CCN(c5nc(C(=O)O)nn5C)C4)C3)nc12` (stereo partly drawn) [Compound 234], “***** (>2.5° C.=*****)”. For the compound `Cc1cc(N2CC[C@](C)(c3ccccc3)C2)cn2nc(C(=O)N3CCC4(CCN(c5nc(C(=O)O)n[nH]5)C4)C3)nc12` (stereo partly drawn) [Compound 235], the DSF result is given as “***** (>2.5° C.=*****)”.

Consider `Cc1cc(N2CC[C@](C)(c3ccccc3)C2)cn2nc(C(=O)N3CCC4(CCN(c5ncn[nH]5)C4)C3)nc12` (stereo partly drawn) [Compound 236], for which the DSF entry was “***** (>2.5° C.=*****)”. In the case of `Cc1cc(N2CC[C@](C)(c3ccccc3)C2)cn2nc(C(=O)NC3CCN(c4ncc(S(C)(=N)=O)cn4)C3)nc12` (stereo partly drawn) [Compound 237] it was “***** (>2.5° C.=*****)”; in that of `Cc1cc(N2CC[C@](C)(c3ccccc3)C2)cn2nc(C(=O)NC3CCN(c4nccc(C(=O)O)n4)CC3)nc12` [Compound 238], “***** (>2.5° C.=*****)”. In the case of `Cc1cc(N2CC[C@](C)(c3ccccc3)C2)cn2nc(C(=O)N3CCC4(CC3)CCN(c3cccc(C(=O)O)n3)C4)nc12` [Compound 239] it was “***** (>2.5° C.=*****)”; in that of `Cc1cc(N2CC[C@](C)(c3ccccc3)C2)cn2nc(C(=O)N3CC4(CCN(c5cccc(C(=O)O)n5)C4)C3)nc12` [Compound 240], “***** (>2.5° C.=*****)”. In the case of `Cc1cc(N2CC[C@](C)(c3ccccc3)C2)cn2nc(C(=O)N3CCC4(C3)CN(c3cccc(C(=O)O)n3)C4)nc12` [Compound 241] it was “***** (>2.5° C.=*****)”; in that of `Cc1cc(N2CC[C@](C)(c3ccccc3)C2)cn2nc(C(=O)N3CCOC4(CCN(c5cccc(C(=O)O)n5)C4)C3)nc12` (stereo partly drawn) [Compound 242], “***** (>2.5° C.=*****)”. For the compound `Cc1cc(N2CC[C@](C)(c3ccccc3)C2)cn2nc(C(=O)NC3CC(=O)N(c4ccnc(C(=O)O)c4)C3)nc12` (stereo partly drawn) [Compound 243], the DSF entry is reported as “***** (>2.5° C.=*****)”. For the compound `Cc1cc(N2CC[C@](C)(c3ccccc3)C2)cn2nc(C(=O)N3CC4CN(c5cccc(C(=O)O)n5)CC4(F)C3)nc12` (stereo partly drawn) [Compound 244], the DSF result is given as “***** (>2.5° C.=*****)”.

For `Cc1cc(N2CC[C@](C)(c3ccccc3)C2)cn2nc(C(=O)NC3CCC4(CCN(c5cccc(C(=O)O)n5)C4)C3)nc12` (stereo partly drawn) [Compound 245], the DSF entry is “***** (>2.5° C.=*****)”.

Turning to `Cc1cc(N2CC[C@](C)(c3ccccc3)C2)cn2nc(C(=O)N3CC4CN(c5cccc(C(=O)O)n5)CC4(O)C3)nc12` (stereo partly drawn) [Compound 246], the DSF result is reported as “***** (>2.5° C.=*****)”.
